According to patent US5116832A, “Penem derivatives production and use thereof” (Suntory Limited, priority 1986, dated 1992):

Assays:
[1] = Acute toxicity test; settings: mouse, in vivo
Text: Among the novel compounds as obtained according to the present invention, the compound (27) was selected to conduct an acute toxicity test. Mice of ICR strain (4-weeks aged), being used as an experimental animal, were given the compound through oral and intravenous routes.

[2] = tested on: S. aureus Smith; experiment: Therapeutic effect on the experimental infection in mice (S. aureus Smith); assay type: in vivo; settings: Staphylococcus aureus, sc, 120 h, S. aureus Smith 3.8 × 10^6 colony forming unit, compound subcut.
[3] = molecular target: T1, purified human renal dehydropeptidase (Homo sapiens, UniProt P16444); experiment: Stability test against renal dehydropeptidase; assay type: in vitro ADME; settings: for half-life at 100 µM: human, purified renal dehydropeptidase, pH 7
T1 sequence (P16444 17-411): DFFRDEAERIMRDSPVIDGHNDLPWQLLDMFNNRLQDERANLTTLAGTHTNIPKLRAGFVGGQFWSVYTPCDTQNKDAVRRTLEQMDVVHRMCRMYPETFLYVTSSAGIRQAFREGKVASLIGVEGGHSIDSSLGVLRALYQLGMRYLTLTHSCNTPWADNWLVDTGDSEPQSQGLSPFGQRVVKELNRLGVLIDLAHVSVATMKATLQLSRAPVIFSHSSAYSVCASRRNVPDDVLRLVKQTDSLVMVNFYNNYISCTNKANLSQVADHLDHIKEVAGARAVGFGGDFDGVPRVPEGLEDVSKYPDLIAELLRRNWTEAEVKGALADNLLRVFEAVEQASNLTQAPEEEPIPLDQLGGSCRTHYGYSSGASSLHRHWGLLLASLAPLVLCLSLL
Procedure: Method: 0.325 μ/ml (final concentration) of purified human renal dehydropeptidase and 100 μM (final concentration) of each test compound were heated to 37° C. in 50 mM of Tris/HCl buffer (pH 7.0) and samples were collected at planned hours. Remaining amounts of the compound in the samples were analyzed quantitatively and the half-life period of each compound was calculated.

[4] = tested on: E. coli KC-14; experiment: Therapeutic effect on the experimental infection in mice (E. coli KC-14); assay type: in vivo; settings: Escherichia coli, E. coli KC-14 4.8 × 10^5 colony forming unit intraperitoneally, survival 5 days later, male ICR mice
Procedure: Among the novel compounds as obtained according to the present ivention, the compound (27) was used to carry out a therapy experiment with infected animals. With male mice of ICR strain (5-weeks aged, weighing from 23 to 27 g) being employed as an experimental animal, E. coli KC-14 was inoculate intraperitoneally to the mice, and, 2 hours later, the compound (27) was administered subcutaneously or orally.

Compound | survival in acute toxicity test ([1]; iv) | survival in acute toxicity test ([1]; po) | ED50 [2] | stability against renal dehydropeptidase (in words) [3] | half-life at 100 µM [3] | ED50 ([4]; KC14, 120 h, compound oral 2 hours later) | ED50 ([4]; KC14, ip, 120 h, compound subcut. 2 hours later) | Remaining amount after 9 hours ([3]; 100 μM test compound, human renal dehydropeptidase, 37° C., 50 mM Tris/HCl buffer pH 7.0, 9 hours)
C[C@@H](O)[C@H]1C(=O)N2C(C(=O)O)=C(CC3CCOC3)S[C@H]12 (stereo partly shown) [Compound 27] | all found to survive | all found to survive | 1.11 mg/kg | more stable than Sch 29482 and Imipenem | 3.81 h | 9.5 mg/kg | 3 mg/kg | –
C[C@@H](O)[C@H]1C(=O)N2C(C(=O)O)=C(SCCN=CN)C[C@H]12 [Imipenem] | – | – | – | – | 3.02 h | – | – | 14.7 µg/mL
CCSC1=C(C(=O)O)N2C(=O)[C@H]([C@@H](C)O)[C@H]2S1 [Sch 29482] | – | – | – | – | 1.44 h | – | – | –
